In patent US6689767B2, “Triterpenes having antibacterial activity” (Regents of the University of Minnesota, priority 2000, dated 2004):
Read-outs that look alike come from different tables or passages of the source.

Key:
Format in all cases: cell-based
[1] = tested on: Bacillus subtilis; assay: Kirby-Bauer disk diffusion growth inhibition, Bacillus subtilis; conditions: for zone of inhibition at 0.125 µg/mL: read-out: Zone of inhibition Bacillus subtilis; for zone of inhibition at 1000 µg/mL: 1 mg/ml in DMSO
Procedure: (§1) The compounds disclosed herein were tested for growth inhibition against four strains of bacteria: Escherichia coli, Staphylococcus aureus, methicillin-resistant Staphylococcus aureus, and Bacillus subtilis. […] They represent […]. E. coli is a gram-negative, non-spore forming, rod-shaped, opportunistic pathogen that resides in the human digestive tract. S. aureus is a gram positive coccus, is usually found morphologically as a […], and is an opportunistic human pathogen, often residing on or in the skin. B. subtilis is a gram positive spore-forming rod. Its native environment is the soil. The chemicals were tested for growth-inhibition of the bacteria by the Kirby-Bauer method. See, e.g., Microbiology, third edition; Lansing M. Prescott, John P. Harley, and Donald A. Klein; Wm. C. Brown Publishers.
(§2) Mueller-Hinton agar (Difco Lab, Michigan) was prepared according to the manufacturer's directions, and 20 ml was dispensed in each sterile petri dish. Sterile nutrient broth (Difco Lab, Michigan) was also prepared according to the manufacturer's directions.
(§3) Bacteria were grown in liquid nutrient broth for 18 hours at 37° C. until they were turbid.
(§4) An aliquot of 0.5 ml of cultured bacteria was aseptically transferred to the surface of a Mueller-Hinton agar plat, and spread using a cotton-tipped swab. Plates were then allowed to dry for 5 minutes. Then a 10 mm diameter filter paper disk impregnated with the test chemical was placed with sterile forceps on the plate. The disks were impregnated with 100 μl of a solution of the test compound in DMSO or in water, at the indicated concentrations in Table 1.
(§5) The zones of inhibition were measured after 18 hours growth at 37° C. Tests were done in triplicate.
(§6) Additional compounds were tested for activity against E. coli, laboratory strain S. aureus (not methicillin resistant), and B. subtilis. The compounds were tested by the disk diffusion method, as in Example 1, with application of a 10 mg/mil solution of the test compound in DMSO.

[2] = tested on: Escherichia coli; assay: Kirby-Bauer disk diffusion growth inhibition, Escherichia coli; conditions: for zone of inhibition at 0.125 µg/mL: read-out: Zone of inhibition Escherichia coli; for zone of inhibition at 1000 µg/mL: 1 mg/ml in DMSO
Procedure: as §1, §2, §3, §4, §5, §6

[3] = tested on: Staphylococcus aureus; assay: Kirby-Bauer disk diffusion growth inhibition, Staphylococcus aureus; conditions: for zone of inhibition at 0.125 µg/mL: read-out: Zone of inhibition Staphylococcus aureus; for zone of inhibition at 1000 µg/mL: 1 mg/ml in DMSO
Procedure: as §1, §2, §3, §4, §5, §6
Derivatives of lupeol were tested for inhibition of bacterial growth using the Kirby-Bauer disk diffusion method and by growth in liquid culture. For the disk diffusion method, compounds were dissolved in DMSO and 100 μl was added to the 10 mm filter paper disk. The amount of compound applied to the disk varied. The amount applied for each compound was as follows: lupeol (50 μg), lupeol-3-maleate (15 μg), lupeol-3-thiodiglycolate (15 μg), lupeol-3-dimethyl succinate (60 μg), lupeol-3-phosphate (30 μg), lupenone (50 μg), lupenon-3-oxime (50 μg), lupeol-3-amine (50 μg), lupenon-1,2-ene-2-ol (50 μg). In liquid culture, the compounds were dissolved in DMSO at 1 mg/ml and then 100 μl was added to 7 ml of sterile broth, along with a 1/200 dilution of freshly grown bacterial liquid culture.

[4] = Bacillus subtilis, 125 ng/ml in water, 100 μl on 10 mm disk, 18 hours 37° C.
[5] = Escherichia coli, 125 ng/ml in water, 100 μl on 10 mm disk, 18 hours 37° C.
[6] = Staphylococcus aureus, 125 ng/ml in water, 100 μl on 10 mm disk, 18 hours 37° C.
[7] = 125 ng/ml in water, 100 μl on 10 mm disk, 18 hours 37° C.
[8] = Bacillus subtilis, 100 μl on 10 mm disk, 18 hours 37° C.
[9] = Escherichia coli, 100 μl on 10 mm disk, 18 hours 37° C.
[10] = Staphylococcus aureus, 100 μl on 10 mm disk, 18 hours 37° C.
[11] = 5 mg/ml in DMSO, 100 μl on 10 mm disk, 18 hours 37° C.
[12] = 10 mg/ml in DMSO, 100 μl on 10 mm disk, 18 hours 37° C.

CC1(C)CCC23CC[C@@]4(C)C(CCC5[C@@]6(C)C=C(OC(=O)CCC(=O)O)C(=O)C(C)(C)C6CC[C@]54C)C2C1OC3 (stereo partly drawn) [3-Allobetulon-1-ene-2-succinate, 3-Allobetulon-1-en-2succinate]
zone of inhibition at 0.125 µg/mL [1, 4]: 0 mm | zone of inhibition at 0.125 µg/mL [2, 5]: 0 mm | zone of inhibition at 0.125 µg/mL [3, 6]: 0 mm

CC(=O)OC1CCC2(C)C(CCC3(C)C2CCC2C4C5OC(=O)C4(CCC5(C)C)CCC23C)C1(C)C (stereo not drawn) [3β-Acetoxy-19αH-19,28 lactone oleanan]
Zone of inhibition Bacillus subtilis [1, 7]: 0 mm | Zone of inhibition Escherichia coli [2, 7]: 0 mm | Zone of inhibition Staphylococcus aureus [3, 7]: 0 mm

CC1(C)CCC23CCC4(C)C(CCC5C6(C)CCC(OC(=O)CCCC(=O)O)C(C)(C)C6CCC54C)C2C1OC3 (stereo not drawn) [Allobetulin 3-glutarate, Allobetulin-3-glutarate]
zone of inhibition at 0.125 µg/mL [1, 4]: 0 mm | zone of inhibition at 1000 µg/mL [1, 8]: 0 mm | zone of inhibition at 0.125 µg/mL [2, 5]: 0 mm | zone of inhibition at 1000 µg/mL [2, 9]: 0 mm | zone of inhibition at 0.125 µg/mL [3, 6]: 0 mm | zone of inhibition at 1000 µg/mL [3, 10]: 0 mm

CC1(C)CCC23CC[C@@]4(C)C(CCC5[C@@]6(C)CCC(OP(=O)(O)O)C(C)(C)C6CC[C@]54C)C2C1OC3 (stereo partly drawn) [Allobetulin 3-phosphate, allobetulin-3-phosphate]
zone of inhibition at 0.125 µg/mL [1, 4]: 0 mm | zone of inhibition at 0.125 µg/mL [2, 5]: 0 mm | zone of inhibition at 0.125 µg/mL [3, 6]: 0 mm

CC1(C)CCC23CCC4(C)C(CCC5C6(C)CCC(OC(=O)CCC(=O)O)C(C)(C)C6CCC54C)C2C1OC3 (stereo not drawn) [Allobetulin 3-succinate, Allobetulin-3-succinate]
Zone of inhibition Bacillus subtilis [1, 11]: 0 mm | Zone of inhibition Escherichia coli [2, 11]: 0 mm | Zone of inhibition Staphylococcus aureus [3, 11]: 0 mm

CC1(C)CCC23CC[C@@]4(C)C(CCC5[C@@]6(C)CCC(OP(=O)(O)O)C(C)(C)C6CC[C@]54C)C2C1OC3=O (stereo partly drawn) [Allobetulin lactone phosphate, allobetulin lactone-3-phosphate]
Zone of inhibition Bacillus subtilis [1, 7]: 0 mm | Zone of inhibition Escherichia coli [2, 7]: 0 mm | Zone of inhibition Staphylococcus aureus [3, 7]: 0 mm

CC1(C)CCC23CC[C@@]4(C)C(CCC5[C@@]6(C)CC[C@H](O)C(C)(C)C6CC[C@]54C)C2C1OC3=O (stereo partly drawn) [Allobetulin lactone]
zone of inhibition at 0.125 µg/mL ([1]; Bacillus subtilis, 18 h): 0 mm | zone of inhibition at 0.125 µg/mL ([2]; Escherichia coli, 18 h): 0 mm | zone of inhibition at 0.125 µg/mL ([3]; Staphylococcus aureus, 18 h): 0 mm

CC1(C)CCC23CC[C@@]4(C)C(CCC5[C@@]6(C)CC[C@H](O)C(C)(C)C6CC[C@]54C)C2C1OC3 (stereo partly drawn) [Allobetulin]
zone of inhibition at 1000 µg/mL [1, 8]: 0 mm | zone of inhibition at 1000 µg/mL [2, 9]: 0 mm | zone of inhibition at 1000 µg/mL [3, 10]: 0 mm

CC1(C)CCC23CC[C@@]4(C)C(CCC5[C@@]6(C)CCC(=O)C(C)(C)C6CC[C@]54C)C2C1OC3 (stereo partly drawn) [Allobetulon]
zone of inhibition at 0.125 µg/mL [1, 4]: 0 mm | zone of inhibition at 0.125 µg/mL [2, 5]: 0 mm | zone of inhibition at 0.125 µg/mL [3, 6]: 0 mm

C=C(C)C1CCC2(COC(=O)CCCC(=O)O)CCC3(C)C(CCC4C5(C)CCC(O)C(C)(C)C5CCC43C)C12 (stereo not drawn) [Betulin 28-glutarate, Betulin-28-glutarate]
zone of inhibition at 0.125 µg/mL [1, 4]: 0 mm | zone of inhibition at 0.125 µg/mL [2, 5]: 0 mm | zone of inhibition at 0.125 µg/mL [3, 6]: 0 mm

C=C(C)[C@@H]1CC[C@]2(COC(=O)/C=C\C(=O)O)CC[C@]3(C)[C@H](CC[C@@H]4[C@@]5(C)CC[C@H](O)C(C)(C)[C@@H]5CC[C@]43C)[C@@H]12 [Betulin 28-maleate, Betulin-28-maleate]
Zone of inhibition Bacillus subtilis [1, 12]: 0 mm | Zone of inhibition Escherichia coli [2, 12]: 0 mm | Zone of inhibition Staphylococcus aureus [3, 12]: 0 mm

C=C(C)C1CCC2(COC(=O)CCC(=O)O)CC[C@@]3(C)C(CCC4[C@@]5(C)CCC(O)C(C)(C)C5CC[C@]43C)C12 (stereo partly drawn) [Betulin 28-succinate, Betulin-28-succinate]
zone of inhibition at 1000 µg/mL [1, 8]: 0 mm | zone of inhibition at 1000 µg/mL [2, 9]: 0 mm | zone of inhibition at 1000 µg/mL [3, 10]: 0 mm

C=C(C)C1CCC2(COC(=O)[C@@H](N)CCC(=O)OCc3ccccc3)CCC3(C)C(CCC4C5(C)CCC(OC(=O)[C@@H](N)CCC(=O)OCc6ccccc6)C(C)(C)C5CCC43C)C12 (stereo partly drawn) [Betulin Di-(L-glutamic acid γ-benzyl ester) ester]
Zone of inhibition Bacillus subtilis [1, 7]: 0 mm | Zone of inhibition Escherichia coli [2, 7]: 0 mm | Zone of inhibition Staphylococcus aureus [3, 7]: 0 mm

C=C(C)[C@@H]1CC[C@]2(COC(=O)[C@@H]3CCCN3)CC[C@]3(C)[C@H](CC[C@@H]4[C@@]5(C)CC[C@H](OC(=O)[C@@H]6CCCN6)C(C)(C)[C@@H]5CC[C@]43C)[C@@H]12 [Betulin Di-(L-proline) ester]
Zone of inhibition Bacillus subtilis [1, 7]: 0 mm | Zone of inhibition Escherichia coli [2, 7]: 0 mm | Zone of inhibition Staphylococcus aureus [3, 7]: 0 mm

C=C(C)C1CCC2(COC(=O)C(N)Cc3ccccc3)CCC3(C)C(CCC4C5(C)CCC(OC(=O)C(N)Cc6ccccc6)C(C)(C)C5CCC43C)C12 (stereo not drawn) [Betulin-3,28-diphenylalanine ester]
Zone of inhibition Bacillus subtilis [1, 7]: 0 mm | Zone of inhibition Escherichia coli [2, 7]: 0 mm | Zone of inhibition Staphylococcus aureus [3, 7]: 0 mm

C=C(C)[C@@H]1CC[C@]2(CO)CC[C@]3(C)[C@H](CC[C@@H]4[C@@]5(C)CC[C@H](O)C(C)(C)[C@@H]5CC[C@]43C)[C@@H]12 [Betulin]
zone of inhibition at 1000 µg/mL [1, 8]: 0 mm | zone of inhibition at 1000 µg/mL [2, 9]: 0 mm | zone of inhibition at 1000 µg/mL [3, 10]: 0 mm

C=C(C)C1CCC2(C)CCC3(C)C(CCC4C5(C)CCC(OC(=O)c6ccccc6C(=O)O)C(C)(C)C5CCC43C)C12 (stereo not drawn) [Lupeol-3-phthalate]
zone of inhibition at 0.125 µg/mL [1, 4]: 0 mm | zone of inhibition at 0.125 µg/mL [2, 5]: 0 mm | zone of inhibition at 0.125 µg/mL [3, 6]: 0 mm

C=C(C)C1CCC2(C)CCC3(C)C(CCC4C5(C)CCC(OC(=O)CCC(=O)O)C(C)(C)C5CCC43C)C12 (stereo not drawn) [Lupeol-3-succinate]
zone of inhibition at 0.125 µg/mL [1, 4]: 0 mm | zone of inhibition at 0.125 µg/mL [2, 5]: 0 mm | zone of inhibition at 0.125 µg/mL [3, 6]: 0 mm

CC1(C)S[C@@H]2[C@H](NC(=O)Cc3ccccc3)C(=O)N2[C@H]1C(=O)O [Pencillin G, reference compound]
Zone of inhibition Bacillus subtilis ([1]; control antibiotic, 10 units): 25.0 mm | Zone of inhibition Escherichia coli ([2]; control antibiotic, 10 units): 0 mm | Zone of inhibition Staphylococcus aureus ([3]; control antibiotic, 10 units): 40.0 mm

CN(C)[C@@H]1C(O)=C(C(N)=O)C(=O)[C@@]2(O)C(O)=C3C(=O)c4c(O)cccc4[C@@](C)(O)[C@H]3C[C@@H]12 [Tetracycline, reference compound]
zone of inhibition at 30 µg/disc ([1]; Bacillus subtilis, control antibiotic, 30 mcg): 31 mm | zone of inhibition at 30 µg/disc ([2]; Escherichia coli, control antibiotic, 30 mcg): 19 mm | zone of inhibition at 30 µg/disc ([3]; Staphylococcus aureus, control antibiotic, 30 mcg): 26 mm

C[C@H]1[C@H](C)CC[C@]2(C(=O)O)CC[C@]3(C)C(=CC[C@@H]4[C@@]5(C)CC[C@H](O)C(C)(C)[C@@H]5CC[C@]43C)[C@H]12 [Ursolic Acid]
zone of inhibition at 0.125 µg/mL [1, 4]: 0 mm | zone of inhibition at 0.125 µg/mL [2, 5]: 0 mm | zone of inhibition at 0.125 µg/mL [3, 6]: 0 mm

Allobetulin 2-alanine ester
Zone of inhibition Bacillus subtilis [1, 7]: 0 mm | Zone of inhibition Escherichia coli [2, 7]: 0 mm | Zone of inhibition Staphylococcus aureus [3, 7]: 0 mm
